Where two headings read alike, the source gives them in different places.
Experiments:
[1] = Japanese Journal of Pharmacology, 1982, Vol. 32, pp. 689-697; cited from earlier work
[2] = system: allergic conjunctivitis of guinea pigs; experiment: Allergic conjunctivitis, histamine content in lacrimal fluid (Test 4); format: in vivo, Hartley guinea pigs
Description: (§1) This test was carried out to estimate the therapeutic effect of the compounds according to the present invention on the allergic conjunctivitis of guinea pigs.
(§2) Hartley guinea pigs were passively sensitized by intravenously injecting 1 ml of anti-DNP-As serum. After 8 days, an antigen solution (DNP-BSA: 2.5 mg/ml) was dropped on the sinistral eye once a minute over 10 minutes, then the lacrimal fluid was collected with filter paper over 10 minutes while the inflammatory reaction of the eye was visually observed during the collection of the lacrimal fluid. At 10 minutes after the completion of the dropping of the antigen solution, the compounds to be examined were dropped on the eye once a minute over 10 minutes and thereafter the collection of the lacrimal fluid and the visual observation of the inflammatory reaction of the eye were likewise effected. Then, the amount of histamine present in the collected lacrimal fluid was determined according to the Komatsu's method (Michitoshi KOMATSU, Allergy, 1978, Vol. 27, pp. 67-74).
(§3) In addition, the concentration of MTCC used was 10^-3 g/ml and that of DSCG was 2×10^-2 g/ml.

[3] = system: metachromatic cells in nasal mucus; experiment: Degranulation inhibitory effect on metachromatic cells in nasal mucus, experimental allergic rhinitis (Test 2); format: in vivo, Wistar rats; settings: intranasal 0.5 ml/100 g, 5 minutes before antigen, average of 5
Description: This test was carried out to examine the degranulation inhibitory effect of the compounds of the present invention on the metachromatic cells in nasal mucus originated from a rat suffering from experimental allergic rhinitis.
Wistar rats were passively sensitized by subcutaneously injecting anti-Cryptomeria Japonica-Ascaris serum of rat. After anesthetizing the rat with pentobarbital sodium, they were fixed while lying them on their back and the cervixes thereof were subjected to median incision. A polyethylene tube having an outer diameter of 1 mm was inserted into the internal nares of each rat through the incised portion of trachea, one end thereof was connected to a perfusion pump and sterilized physiologic saline warmed at 37° C. was perfused therethrough at a flow rate of 0.25 ml/min. 1 ml of the antigen extracted from pollen of Japanese cedar (10 micro liter per ml) was sprayed in both internal nares by means of an atomizer for internal nares and the perfusate delivered from the internal nares was recovered for 20 minutes. The number of degranulated cells per 100 metachromatic cells present in the recovered samples were scored and the value was regarded as that of the control (Nc).
The compound to be tested were dissolved in 0.15M phosphate buffer so as to obtain a solution of a desired concentration, each solution was administered through both of the interanal nares in an amount of 0.5 ml/100 g body weight, at a time 5 minutes before the spray of the antigen and the number of degranulated cells (Nt) was scored according to the same manner as described above. The rate of inhibitory effect on the degranulation (Rd) was estimated from the following relation: [formula] Each experimental results is the average of 5 measurements.

[4] = system: allergic conjunctivitis of guinea pigs; experiment: Allergic conjunctivitis, visual observation of inflammatory reaction of the eye (Test 4); format: in vivo, Hartley guinea pigs; settings: MTCC 10^-3 g/ml, DSCG 2×10^-2 g/ml, dropped on the eye after antigen
Description: as §1, §2, §3

[5] = system: rats suffering from experimental allergic rhinitis; experiment: Nasal mucus secretion inhibitory effect, experimental allergic rhinitis (Test 3); format: in vivo, Wistar rats; settings: brilliant blue in nasal perfusate, average of 5
Source text: This test was effected to examine the nasal mucus secretion inhibitory effect of the compounds according to the present invention on the rats suffering from experimental allergic rhinitis.
Wistar rats were passively sensitized by subcutaneously injecting anti-Cryptomeria Japonica-As serum of rat. After anesthetizing the rat with pentobarbital sodium, they were fixed while lying them on their back and the cervixes thereof were subjected to median incision. A polyethylene tube having an outer diameter of 1 mm was inserted into the internal nares of each rat through the incised portion of trachea, one end thereof was connected to a perfusion pump and sterilized physiologic saline warmed at 37° C. was perfused therethrough at a flow rate of 0.25 ml/min.
Then, 0.5 ml/100 g body weight of 4% brilliant blue was injected into the rat through the caudal vein, then the perfusate was recovered for 10 minutes and the concentration of the dye was determined which was regarded as the Ag (-) value of the control. 1 ml of the antigen extracted from pollen of Japanese cedar (1 micro liter per ml) was sprayed in both internal nares by means of an atomizer for internal nares, the antigen remaining in the internal nares was washed out with physiologic saline and the perfusate was then recovered for 30 minutes and the concentration of the dye was determined to estimate Ag (+) value of the control.
The compound to be tested were dissolved in 0.15 M phosphate buffer so as to form a solution of a desired concentration. Each of the solutions thus prepared was sprayed in both internal nares in an amound of 0.5 ml/100g body weight at the time of 5 minutes before the spray of the antigen and the concentration of the dye was determined on each sample. In this connection, the measurement of the dye concentration was effected according to the spectrophotometric method developed by M. Kojima et al. (Allergy, 1986, Vol. 35, pp. 180-187).

[6] = Water solubility / hydrophilicity (statement in words); format: physicochemical
[7] = Acute toxicity test, mouse (Test 5); format: in vivo; settings: mouse, in vivo, Male, 14 days observation
Description: (§4) MTCC was administered to ddY Mice (body weight 20 to 23 g; 10 animals per test group) and Wistar rats (body weight 110 to 130 g; 10 animals per test group) through intravenous and oral routes and it was also administered to Beagle dogs (7 months old; 3 animals per test group) through oral route.
(§5) MTCC was administered to rats and mice in the form of a solution thereof in 0.1 M phosphate buffer in the case of intravenous administration and in the form of a suspension in 0.5% CMC-Na in the case of oral administration. While it was orally administered to dogs in the form of a capsule filled with the original powder.

Mouse = experiment: Acute toxicity test, mouse (Test 5); format: in vivo; settings: Female, 14 days observation
Description: as §4, §5

[8] = Acute toxicity test, dog (Test 5); format: in vivo; settings: dog, in vivo, po; Male, p.o. (capsule); 14 days observation
Description: as §4, §5

Dog = experiment: Acute toxicity test, dog (Test 5); format: in vivo; settings: Female, p.o. (capsule); 14 days observation
Description: as §4, §5

Rat = experiment: Acute toxicity test, rat (Test 5); format: in vivo; settings: Female, 14 days observation
Description: as §4, §5

[9] = Acute toxicity test, rat (Test 5); format: in vivo; settings: rat, in vivo, Male, 14 days observation
Description: as §4, §5

[10] = After Dropping of Antigen (before compound)
[11] = After Dropping of Compound, MTCC 10^-3 g/ml, DSCG 2×10^-2 g/ml

| Structure (SMILES) | Histamine Content in Lacrimal Fluid [2, 10] | Histamine Content in Lacrimal Fluid [2, 11] | Rate of Inhibition of Degranulation Rd (%) ([3]; Concn. 10^-4 g/ml) | Rate of Inhibition of Degranulation Rd (%) ([3]; Concn. 10^-5 g/ml) | Rate of Inhibition of Degranulation Rd (%) ([3]; Concn. 10^-6 g/ml) | Rate of Inhibition of Degranulation Rd (%) ([3]; Concn. 10^-7 g/ml) | Rate of Inhibition of Degranulation Rd (%) ([3]; Concn. 10^-8 g/ml) | Therapeutic effect on swelling and congestion of the conjunctiva (visual observation) [4] | Dye Concentration ([5]; Concn. 10^-4 g/ml) | Dye Concentration ([5]; Concn. 10^-5 g/ml) | Dye Concentration ([5]; Concn. 10^-6 g/ml) | Dye Concentration ([5]; Concn. 10^-7 g/ml) | Dye Concentration ([5]; Concn. 10^-8 g/ml) | further results |
| --- | --- | --- | --- | --- | --- | --- | --- | --- | --- | --- | --- | --- | --- | --- |
| CCCCOC(=O)C(=O)Nc1cccc(-c2nnn[nH]2)c1 [MTB, Butyl 3(1H--tetrazol5-yl)oxanilate] |  |  |  |  |  |  |  |  |  |  |  |  |  | Water solubility (in words) [1]: hydrophobic or less soluble in water |
| O=C(O)c1cc(=O)c2c(OCC(O)COc3cccc4oc(C(=O)O)cc(=O)c34)cccc2o1 [DSCG, Disodium Chromoglycate, reference compound] | 6.7 ng | 6.4 ng | 90.3% | 71.5% | 39.4% | 8.1% | -1.7% | relatively low therapeutic effect | 0.65 micro gr./ml | 0.89 micro gr./ml | 1.01 micro gr./ml | 1.44 micro gr./ml | 1.77 micro gr./ml |  |
| O=C(O)C(=O)Nc1cccc(-c2nnn[nH]2)c1 [MTCC, 3-(1H-tetrazol-5-yl)oxanilic acid] | 6.3 ng | 2.4 ng | 94.3% | 75.1% | 33.0% | 15.0% | -1.4% | excellent therapeutic effect | 0.64 micro gr./ml | 0.85 micro gr./ml | 0.99 micro gr./ml | 1.37 micro gr./ml | 1.74 micro gr./ml | Histamine content in the lacrimal fluid (in words) ([2]; by the administration of MTCC, 10^-3 g/ml): substantially reduced; Water solubility (in words) [6]: hydrophyilic or soluble in water; LD50 at 336 h ([7]; iv): > 225 mg/kg; LD50 at 336 h ([7]; po): > 2000 mg/kg; Acute Toxicity LD50 (Mouse; i.v.): > 225 mg/kg; Acute Toxicity LD50 (Mouse; p.o.): > 2000 mg/kg; LD50 at 336 h [8]: > 2000 mg/kg; Acute Toxicity LD50 (Dog): > 2000 mg/kg; Acute Toxicity LD50 (Rat; i.v.): > 180 mg/kg; Acute Toxicity LD50 (Rat; p.o.): > 2000 mg/kg; LD50 at 336 h ([9]; iv): > 180 mg/kg; LD50 at 336 h ([9]; po): > 2000 mg/kg |

Source: patent US4795754A, “3-(1H-tetrazol-5-y1)oxanilic acid and salts thereof and pharmaceutical compositions containing them” (Wakamoto Pharmaceutical Co., Ltd., priority 1986, dated 1989)
